ChEMBL document CHEMBL3885881, “DrugMatrix”

Organism: Rattus norvegicus
Test: DrugMatrix - Regimen: Daily Repeat
Format: toxicity, organism-based, Sprague-Dawley
Set-up: regimen Daily Repeat, gender Male, age 6-8 weeks
Conditions: in vivo, po, route oral GAVAGE, vehicle .5 % CMC; for ABSOLUTE BASOPHIL / ABSOLUTE EOSINOPHIL / ABSOLUTE LYMPHOCYTE / ABSOLUTE MONOCYTE / ABSOLUTE SEGMENTED NEUTROPHIL / BASOPHIL / EOSINOPHIL / HEMATOCRIT / HEMOGLOBIN / LEUKOCYTE COUNT / LYMPHOCYTE / MEAN CORPUSCULAR HEMOGLOBIN / MEAN CORPUSCULAR HEMOGLOBIN CONCENTRATION / MEAN CORPUSCULAR VOLUME / MONOCYTE / NEUTROPHIL / NUCLEATED RED BLOOD CELLS / PLATELET COUNT: tissue Blood; for ALANINE AMINOTRANSFERASE / ALBUMIN / ALKALINE PHOSPHATASE / ASPARTATE AMINOTRANSFERASE / BLOOD UREA NITROGEN / CARBON DIOXIDE / CHLORIDE / CHOLESTEROL / CREATINE PHOSPHOKINASE / CREATININE / GLUCOSE / LACTATE DEHYDROGENASE / LIPASE / PHOSPHORUS / POTASSIUM / SODIUM / TOTAL BILIRUBIN / TOTAL PROTEIN / URIC ACID: tissue Plasma
[1] = 150 mg/kg, 72 h, dose level Low, time 3 day
[2] = 150 mg/kg, 120 h, dose level Low, time 5 day
[3] = 1500 mg/kg, 72 h, dose level High, time 3 day
[4] = 1500 mg/kg, 120 h, dose level High, time 5 day

Compound: CC(C)(C)NCC(O)COc1cccc2c1CC(O)C(O)C2 (stereo not drawn) [NADOLOL]
- ABSOLUTE BASOPHIL [1]: 0 CELLS/uL
- ABSOLUTE EOSINOPHIL [1]: 43.33 CELLS/uL
- ABSOLUTE LYMPHOCYTE [1]: 11948.67 CELLS/uL
- ABSOLUTE MONOCYTE [1]: 0 CELLS/uL
- ABSOLUTE SEGMENTED NEUTROPHIL [1]: 1241.33 CELLS/uL
- BASOPHIL [1]: 0%
- EOSINOPHIL [1]: 0.33%
- HEMATOCRIT [1]: 34.8%
- HEMOGLOBIN [1]: 13.13 G/DL
- LEUKOCYTE COUNT [1]: 13.23 x10E3/uL
- LYMPHOCYTE [1]: 90.33%
- MEAN CORPUSCULAR HEMOGLOBIN [1]: 24.5 pg
- MEAN CORPUSCULAR HEMOGLOBIN CONCENTRATION [1]: 37.73 G/DL
- MEAN CORPUSCULAR VOLUME [1]: 64.87 fL
- MONOCYTE [1]: 0%
- NEUTROPHIL [1]: 9.33%
- NUCLEATED RED BLOOD CELLS [1]: 0 /100WBC
- PLATELET COUNT [1]: 1238.33 x10E3/uL
- ALANINE AMINOTRANSFERASE [1]: 44 u/L
- ALBUMIN [1]: 4.17 G/DL
- ALKALINE PHOSPHATASE [1]: 391.33 u/L
- ASPARTATE AMINOTRANSFERASE [1]: 75.33 u/L
- BLOOD UREA NITROGEN [1]: 17 mg/dL
- CARBON DIOXIDE [1]: 24.67 mmol/L
- CHLORIDE [1]: 104 MEQ/L
- CHOLESTEROL [1]: 82.33 mg/dL
- CREATINE PHOSPHOKINASE [1]: 224 u/L
- CREATININE [1]: 0.22 mg/dL
- GLUCOSE [1]: 176.33 mg/dL
- LACTATE DEHYDROGENASE [1]: 97 u/L
- LIPASE [1]: 8 u/L
- PHOSPHORUS [1]: 14.9 mg/dL
- POTASSIUM [1]: 6.65 MEQ/L
- SODIUM [1]: 146.1 MEQ/L
- TOTAL BILIRUBIN [1]: 0.23 mg/dL
- TOTAL PROTEIN [1]: 6.1 G/DL
- URIC ACID [1]: 2 mg/dL
- ABSOLUTE BASOPHIL [2]: 0 CELLS/uL
- ABSOLUTE EOSINOPHIL [2]: 50.33 CELLS/uL
- ABSOLUTE LYMPHOCYTE [2]: 8337.33 CELLS/uL
- ABSOLUTE MONOCYTE [2]: 0 CELLS/uL
- ABSOLUTE SEGMENTED NEUTROPHIL [2]: 679 CELLS/uL
- BASOPHIL [2]: 0%
- EOSINOPHIL [2]: 0.67%
- HEMATOCRIT [2]: 35.83%
- HEMOGLOBIN [2]: 13.37 G/DL
- LEUKOCYTE COUNT [2]: 9.07 x10E3/uL
- LYMPHOCYTE [2]: 91.67%
- MEAN CORPUSCULAR HEMOGLOBIN [2]: 24.27 pg
- MEAN CORPUSCULAR HEMOGLOBIN CONCENTRATION [2]: 37.37 G/DL
- MEAN CORPUSCULAR VOLUME [2]: 64.93 fL
- MONOCYTE [2]: 0%
- NEUTROPHIL [2]: 7.67%
- NUCLEATED RED BLOOD CELLS [2]: 0 /100WBC
- PLATELET COUNT [2]: 1254.33 x10E3/uL
- ALANINE AMINOTRANSFERASE [2]: 46.33 u/L
- ALBUMIN [2]: 4.17 G/DL
- ALKALINE PHOSPHATASE [2]: 380.67 u/L
- ASPARTATE AMINOTRANSFERASE [2]: 77.67 u/L
- BLOOD UREA NITROGEN [2]: 14.67 mg/dL
- CARBON DIOXIDE [2]: 29.67 mmol/L
- CHLORIDE [2]: 101 MEQ/L
- CHOLESTEROL [2]: 84.67 mg/dL
- CREATINE PHOSPHOKINASE [2]: 179 u/L
- CREATININE [2]: 0.19 mg/dL
- GLUCOSE [2]: 140.33 mg/dL
- LACTATE DEHYDROGENASE [2]: 101 u/L
- LIPASE [2]: 8.67 u/L
- PHOSPHORUS [2]: 10.8 mg/dL
- POTASSIUM [2]: 6.14 MEQ/L
- SODIUM [2]: 147.83 MEQ/L
- TOTAL BILIRUBIN [2]: 0.27 mg/dL
- TOTAL PROTEIN [2]: 5.93 G/DL
- URIC ACID [2]: 0.8 mg/dL
- ABSOLUTE BASOPHIL [3]: 0 CELLS/uL
- ABSOLUTE EOSINOPHIL [3]: 179 CELLS/uL
- ABSOLUTE LYMPHOCYTE [3]: 10744.33 CELLS/uL
- ABSOLUTE MONOCYTE [3]: 0 CELLS/uL
- ABSOLUTE SEGMENTED NEUTROPHIL [3]: 1443.33 CELLS/uL
- BASOPHIL [3]: 0%
- EOSINOPHIL [3]: 1.33%
- HEMATOCRIT [3]: 32.37%
- HEMOGLOBIN [3]: 12.3 G/DL
- LEUKOCYTE COUNT [3]: 12.37 x10E3/uL
- LYMPHOCYTE [3]: 87.67%
- MEAN CORPUSCULAR HEMOGLOBIN [3]: 24.6 pg
- MEAN CORPUSCULAR HEMOGLOBIN CONCENTRATION [3]: 38 G/DL
- MEAN CORPUSCULAR VOLUME [3]: 64.77 fL
- MONOCYTE [3]: 0%
- NEUTROPHIL [3]: 11%
- NUCLEATED RED BLOOD CELLS [3]: 0 /100WBC
- PLATELET COUNT [3]: 1241.33 x10E3/uL
- ALANINE AMINOTRANSFERASE [3]: 51.33 u/L
- ALBUMIN [3]: 3.9 G/DL
- ALKALINE PHOSPHATASE [3]: 378.33 u/L
- ASPARTATE AMINOTRANSFERASE [3]: 79.33 u/L
- BLOOD UREA NITROGEN [3]: 16 mg/dL
- CARBON DIOXIDE [3]: 24.67 mmol/L
- CHLORIDE [3]: 109.33 MEQ/L
- CHOLESTEROL [3]: 85 mg/dL
- CREATINE PHOSPHOKINASE [3]: 126 u/L
- CREATININE [3]: 0.15 mg/dL
- GLUCOSE [3]: 170 mg/dL
- LACTATE DEHYDROGENASE [3]: 86.33 u/L
- LIPASE [3]: 8 u/L
- PHOSPHORUS [3]: 14.57 mg/dL
- POTASSIUM [3]: 7.08 MEQ/L
- SODIUM [3]: 148.37 MEQ/L
- TOTAL BILIRUBIN [3]: 0.17 mg/dL
- TOTAL PROTEIN [3]: 5.63 G/DL
- URIC ACID [3]: 2.2 mg/dL
- ABSOLUTE BASOPHIL [4]: 0 CELLS/uL
- ABSOLUTE EOSINOPHIL [4]: 191.67 CELLS/uL
- ABSOLUTE LYMPHOCYTE [4]: 13307.33 CELLS/uL
- ABSOLUTE MONOCYTE [4]: 0 CELLS/uL
- ABSOLUTE SEGMENTED NEUTROPHIL [4]: 867.67 CELLS/uL
- BASOPHIL [4]: 0%
- EOSINOPHIL [4]: 1.33%
- HEMATOCRIT [4]: 33.3%
- HEMOGLOBIN [4]: 12.53 G/DL
- LEUKOCYTE COUNT [4]: 14.37 x10E3/uL
- LYMPHOCYTE [4]: 92.67%
- MEAN CORPUSCULAR HEMOGLOBIN [4]: 23.37 pg
- MEAN CORPUSCULAR HEMOGLOBIN CONCENTRATION [4]: 37.67 G/DL
- MEAN CORPUSCULAR VOLUME [4]: 62.2 fL
- MONOCYTE [4]: 0%
- NEUTROPHIL [4]: 6%
- NUCLEATED RED BLOOD CELLS [4]: 0 /100WBC
- PLATELET COUNT [4]: 1258.33 x10E3/uL
- ALANINE AMINOTRANSFERASE [4]: 44.67 u/L
- ALBUMIN [4]: 3.9 G/DL
- ALKALINE PHOSPHATASE [4]: 343 u/L
- ASPARTATE AMINOTRANSFERASE [4]: 80 u/L
- BLOOD UREA NITROGEN [4]: 16.33 mg/dL
- CARBON DIOXIDE [4]: 25.33 mmol/L
- CHLORIDE [4]: 103.67 MEQ/L
- CHOLESTEROL [4]: 74 mg/dL
- CREATINE PHOSPHOKINASE [4]: 262 u/L
- CREATININE [4]: 0.21 mg/dL
- GLUCOSE [4]: 152.33 mg/dL
- LACTATE DEHYDROGENASE [4]: 268.33 u/L
- LIPASE [4]: 8 u/L
- PHOSPHORUS [4]: 13 mg/dL
- POTASSIUM [4]: 6.63 MEQ/L
- SODIUM [4]: 146.2 MEQ/L
- TOTAL BILIRUBIN [4]: 0.13 mg/dL
- TOTAL PROTEIN [4]: 5.7 G/DL
- URIC ACID [4]: 1.47 mg/dL
